One test deals with human TNF. The test is described as follows: TNF inhibition: human whole blood assay. Format: cell-based. The following applies: for IC50: Homo sapiens; for inhibition at 5 µM: read-out: Human Whole Blood % Inhib @ conc. Here is the method:
Human peripheral blood is obtained in heparinized tubes. A 190 μL aliquot of blood is placed in each well of a 96 well u-bottom plate. […] After one hour of incubation at 37° C., […] of lipopolysaccharide (Salmonella typhosa, Sigma) in phosphate buffered saline is added resulting in a final concentration of […]. After four to five hours of incubation at 37° C., the supernatants are harvested and assayed at 1:10 or 1:20 dilutions for human TNF using ELISA.

A further test has as its target T1, human p38 kinase alpha (Homo sapiens, UniProt Q16539).
T1 construct: The coding region of the human p38a cDNA was obtained by PCR-amplification from RNA isolated from the human monocyte cell line THP.1; GST (N); made in house; host or cells: E. coli DH10B
The test is described as follows: p38 kinase in vitro assay, phosphorylation of biotinylated PHAS-I with gamma 32P-ATP. It counts as biochemical. The following applies: read-out: P38 alpha kinase IC50. The method in brief:
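MKK6-activated human p38α phosphorylates biotinylated PHAS-I with γ-32P-ATP in 25 mM HEPES pH 7.5, 10 mM Mg acetate, 50 μM unlabeled ATP, 1% DMSO, 30 °C for 1 h or overnight. Compounds at 100–0.001 μM (10-fold steps, triplicate); substrate captured on streptavidin filter plates and counted by scintillation.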

Test [1] deals with T2, human GST-p38 kinase alpha (Homo sapiens, UniProt Q16539).
T2 construct: The coding region of the human p38a cDNA was obtained by PCR-amplification from RNA isolated from the human monocyte cell line THP.1; made in house; host or cells: E. coli DH10B
The test is described as follows: p38 kinase in vitro assay, second format, phosphorylation of EGFRP with 33P-ATP. The following applies: read-out: p38α Kinase Assay IC50. It counts as biochemical. Here is the method: A second assay format was also employed that is based on p38 kinase alpha induced phosphorylation of EGFRP (epidermal growth factor receptor peptide, a 21 mer) in the presence of ^33P-ATP. Compounds were tested in 10 fold serial dilutions over the range of 100 μM to 0.001 μM in 10% DMSO. Each concentration of inhibitor was tested in triplicate. Compounds were evaluated in 50 μl reaction volumes in the presence of 25 mM Hepes pH 7.5, 10 mM magnesium acetate, 4% glycerol, 0.4% bovine serum albumin, 0.4 mM DTT, 50 μM unlabeled ATP, 25 μg EGFRP (200 μM), and 0.05 uCi gamma ^33P-ATP. Reactions were initiated by addition of 0.09 μg of activated, purified human GST-p38 kinase alpha. Activation was carried out using GST-MKK6 (5:1, p38: MKK6) for one hour at 30° C. in the presence of 50 μM ATP. Following incubation for 60 minutes at room temperature, the reaction was stopped by addition of 150 μl of AG 1×8 resin in 900 mM sodium formate buffer, pH 3.0 (1 volume resin to 2 volumes buffer). The mixture was mixed three times with pipetting and the resin was allowed to settle. A total of 50 μl of clarified solution head volume was transferred from the reaction wells to Microlite-2 plates. 150 μl of Microscint 40 was then added to each well of the Microlite plate, and the plate was sealed, mixed, and counted.

In a further test the test system is TNF-α. The test is described as follows: Rat assay: LPS-challenged rats, serum TNF-α by ELISA. Format: in vivo. The following applies: Rattus norvegicus, po; for inhibition in vivo at 3 mg/kg: read-out: Rat LPS Assay % Inhibition; for inhibition in vivo at 10 mg/kg: Table 9, dose 10 mg/kg; for inhibition in vivo at 5 mg/kg: 5 mpk oral gavage, 4 h before LPS challenge, read-out: Rat LPS Model % Inhibition @ dose @ predose time. As for the experimental part: The efficacy of the novel compounds in blocking the production of TNF also was evaluated using a model based on rats challenged with LPS. Male Harlen Lewis rats [Sprague Dawley Co.] were used in this model. Each rat weighed approximately 300 g and was fasted overnight prior to testing. Compounds administration was typically by oral gavage (although intraperitoneal, subcutaneous and intravenous administration were also used in a few instances) 1 to 24 hours prior to the LPS challenge. Rats were administered 30 μg/kg LPS [salmonella typhosa, Sigma Co.] intravenously via the tail vein. Blood was collected via heart puncture 1 hour after the LPS challenge. Serum samples were stored at −20° C. until quantitative analysis of TNF-α by Enzyme Linked-Immuno-Sorbent Assay (“ELISA”) [Biosource]. Additional details of the assay are set forth in Perretti, M., et al., Br. J. Pharmacol. (1993), 110, 868-874, which is incorporated by reference in this application.
In vivo assessment of the ability of the compounds to inhibit LPS-stimulated TNF release in the rat is shown in the column identified as:
wherein in the dose is milligram per kilogram (mpk) administered by oral gavage and the predose time indicates the number of hours before LPS challenge when the compound is administered.
Background: ELISA stands for enzyme-linked immunosorbent assay.

[2] abbreviates: TNF production, LPS-stimulated human whole blood, read-out: Human Whole Blood IC50.
Setting [3] is: Table 9, human whole blood, LPS, read-out: TNF Inhibition-Human Whole Blood Assay.
The mark [4] stands for this setting: Table 8, human whole blood, LPS, read-out: TNF Inhibition-Human Whole Blood Assay.
Where [5] appears, read: TNF production, LPS-stimulated human whole blood.

Molecules are shown by their SMILES. “And” between values parts separate entries of the source, which are not always exact repeats. Identical values can stand only once. Like-named read-outs stand apart in the source and are kept apart here.

T1 sequence (Q16539 whole entry): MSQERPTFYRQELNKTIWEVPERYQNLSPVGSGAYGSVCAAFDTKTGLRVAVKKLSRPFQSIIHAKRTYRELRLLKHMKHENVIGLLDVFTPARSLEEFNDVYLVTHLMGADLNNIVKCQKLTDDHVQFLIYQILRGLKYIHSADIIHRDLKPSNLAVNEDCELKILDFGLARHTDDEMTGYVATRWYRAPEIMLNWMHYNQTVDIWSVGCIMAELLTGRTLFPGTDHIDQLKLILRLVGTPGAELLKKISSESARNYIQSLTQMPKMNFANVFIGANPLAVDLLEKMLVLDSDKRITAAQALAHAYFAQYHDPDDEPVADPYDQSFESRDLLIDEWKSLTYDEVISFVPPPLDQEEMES
T2 sequence (Q16539 whole entry): as above

Regarding `Clc1ccc(-c2n[nH]c(C3CCN(Cc4nccs4)CC3)c2-c2ccncc2)cc1` [Example C-82], the figures for the IC50 in the test with human TNF (setting [2]) and on human p38 kinase alpha were 7310 nM and 150 nM, respectively.

Turning to `CC1CN(c2[nH]nc(-c3ccc(Cl)cc3)c2-c2ccncc2)CCN1` (stereo not shown) [Example A-343, 1-[5-(4-chlorophenyl)-4-(4-pyridinyl)-1H-pyrazol-3-yl]-3-methylpiperazine], the IC50 in test [1] (Table 8, 10% DMSO) was 16 nM. Besides, the inhibition in vivo at 20 mg/kg with TNF-α (Table 8, dose 20.0 mg/kg) was 96%.

Take `CS(=O)(=O)N1CCN(c2n[nH]c(-c3ccc(Cl)cc3)c2-c2ccncc2)CC1` [Example A-320, 1-[5-(4-chlorophenyl)-4-(4-pyridinyl)-1H-pyrazol-3-yl]-4-(methylsulfonyl)piperazine, monohydrate]: in test [1] (Table 8, 10% DMSO), the IC50 is 50 nM and 150 nM. Besides, the inhibition in vivo at 3 mg/kg in the test on TNF-α (Table 8, dose 3.0 mg/kg) is 1%.

For the molecule `CN1CCC(c2[nH]nc(-c3cccc(C(F)(F)F)c3)c2-c2ccncc2)CC1` [Example C-87], the IC50 with human TNF (setting [2]) is 340 nM; at human p38 kinase alpha it was 27 nM.

For `O=C1CCN(c2n[nH]c(-c3ccc(F)cc3)c2-c2ccncc2)CC1` [Example A-378, 1-[5-(4-fluorophenyl)-4-(4-pyridinyl)-1H-pyrazol-3-yl]-4-piperidinone], the IC50 in test [1] (Table 9, 10% DMSO) is 6200 nM. This molecule gave an inhibition in vivo at 10 mg/kg in the test on TNF-α of 73%.

In the case of `CC(C)N1CCC(c2[nH]nc(-c3ccc(C(F)(F)F)cc3)c2-c2ccncc2)CC1` [Example C-85], the IC50 in the test with human TNF (setting [2]) is > 25000 nM; at human p38 kinase alpha, 570 nM.

For `O[C@H]1CC[C@H](Nc2cc(-c3c[nH]nc3-c3ccc(F)cc3)ccn2)CC1` [Example A-386, trans-4-[[4-[3-(4-fluorophenyl)-1-H-pyrazol-4-yl]-2-pyridinyl]amino]cyclohexanol], in the test with human TNF (setting [3]), the IC50 was 160 nM. The inhibition in vivo at 20 mg/kg in the test with TNF-α (Table 9, dose 20 mg/kg) worked out at 91%.

With `O=C1CCC(Nc2cc(-c3c[nH]nc3-c3ccc(F)cc3)ccn2)CC1` [Example A-387, 4-[[4-[3-(4-fluorophenyl)-1H-pyrazol-4-yl]-2-pyridinyl]amino]cyclohexanone], in test [1] (Table 9, 10% DMSO), the IC50 stood at 5 nM. In addition, the inhibition in vivo at 20 mg/kg with TNF-α (Table 9, dose 20 mg/kg) came out at 83%.

For the molecule `CC1CN(c2[nH]nc(-c3ccc(Cl)cc3)c2-c2ccncc2)CC(C)N1` (stereo not shown) [Example A-342, 1-[5-(4-chlorophenyl)-4-(4-pyridinyl)-1H-pyrazol-3-yl]-3,5-dimethylpiperazine], in the test with human TNF (setting [4]), the IC50 stood at 310 nM. The same molecule gave an inhibition in vivo at 20 mg/kg with TNF-α (Table 8, dose 20.0 mg/kg) of 98%.

Turning to `Fc1ccc(-c2n[nH]c([C@@H]3CCCNC3)c2-c2ccncc2)cc1` [Example C-127], the values for the IC50 with human TNF (setting [2]) and on human p38 kinase alpha were 270 nM and 38 nM, respectively.

For `O=C(O)CCC(=O)N1CCN(c2n[nH]c(-c3ccc(Cl)cc3)c2-c2ccncc2)CC1` [A-321 (dihydrate), 4-[5-(4-chlorophenyl)-4-(4-pyridinyl)-1H-pyrazol-3-yl]-γ-oxo-1-piperazinebutanoic acid, dihydrate], the IC50 in the test with human TNF (read-out: TNF Inhibition-Human Whole Blood Assay) is > 25000 nM.

Consider `OC[C@@H](Cc1ccccc1)Nc1cc(-c2c[nH]nc2-c2ccc(F)cc2)ccn1` [Example A-361, (βR)-β-[[4-[3-(4-fluorophenyl)-1H-pyrazol-4-yl]-2-pyridinyl]amino]benzene propanol], for which the IC50 in the test on human TNF (setting [3]) stood at 1000 nM. The inhibition in vivo at 20 mg/kg in the test on TNF-α (Table 9, dose 20 mg/kg) turned out to be 9%.

Consider `COC(=O)N1CCN(c2[nH]nc(-c3ccc(Cl)cc3)c2-c2ccncc2)CC1` [Example A-319, methyl 4-[5-(4-chlorophenyl)-4-(4-pyridinyl)-1H-pyrazol-3-yl]-1-piperazinecarboxylate, monohydrate], for which, in the test on human TNF (setting [4]), the IC50 was > 25000 nM. The inhibition in vivo at 3 mg/kg with TNF-α (Table 8, dose 3.0 mg/kg) came to 62%.

Consider `OC1CCN(c2[nH]nc(-c3ccc(F)cc3)c2-c2ccncc2)CC1` [Example A-379, 1-[5-(4-fluorophenyl)-4-(4-pyridinyl)-1H-pyrazol-3-yl]-4-piperidinol], for which the IC50 in test [1] (Table 9, 10% DMSO) was found to be 190 nM. In addition, the inhibition in vivo at 10 mg/kg in the test on TNF-α is 61%.

Consider `OCCCCc1[nH]nc(-c2ccc(F)cc2)c1-c1ccncc1` [Example C-132, 5-[4-(1-HYDROXY)BUTYL]-4-(4-PYRIDYL)-3-(4-FLUOROPHENYL)PYRAZOLE], for which, in the test with human TNF (setting [5]), the inhibition at 5 µM came to 44%. For the same molecule, the IC50 at human p38 kinase alpha was 86 nM.

In the case of `Fc1ccc(-c2n[nH]c(C3CCCNC3)c2-c2ccncc2)cc1` (stereo not shown) [Example C-90, 5-(3-piperidyl)-4-(4-pyridyl)-3-(4-fluorophenyl)pyrazole], the IC50 was 480 nM with human TNF (setting [2]) and 37 nM on human p38 kinase alpha.

For `CC(=O)N[C@H]1CC[C@@H](c2[nH]nc(-c3ccc(Cl)cc3)c2-c2ccncc2)CC1` [Example C-95, 5- cis-[4-N-(ACETYL)AMINOCYCLOHEXYL]-4-(4-PYRIDYL)-3-(4-CHLOROPHENYL)PYRAZOLE], the IC50 in the test with human TNF (setting [2]) was 3910 nM. For the same molecule, the inhibition in vivo at 5 mg/kg in the test on TNF-α came out at 32%.

`Fc1ccc(-c2n[nH]c([C@H]3CCCN3)c2-c2ccncc2)cc1` [Example C-125, (R)-5-(2-PYROLIDINYL)-4-(4-PYRIDYL)-3-(4-FLUOROPHENYL)PYRAZOLE]: the IC50 was > 25000 nM in the test with human TNF (setting [2]) and 7220 nM at human p38 kinase alpha.

With `COCC(=O)NC1CCC(c2[nH]nc(-c3ccc(Cl)cc3)c2-c2ccncc2)CC1` (stereo not drawn) [Example C-96, 5-cis-[4-N-(METHOXYACETYL)AMINOCYCLOHEXYL]-4-(4-PYRIDYL)-3-(4-CHLOROPHENYL)PYRAZOLE], in the test on human TNF (setting [2]), the IC50 came out at 2100 nM. Further, in the test with TNF-α, the inhibition in vivo at 5 mg/kg is 38%.

Regarding `CCOC(=O)N1CCC(Nc2n[nH]c(-c3ccc(Cl)cc3)c2-c2ccncc2)CC1` [Example A-331, ethyl 4-[[5-(4-chlorophenyl)-4-(4-pyridinyl)-1H-pyrazol-3-yl]amino]-1-piperidinecarboxylate], the IC50 in test [1] (Table 8, 10% DMSO) worked out at 640 nM. In the test on TNF-α (Table 8, dose 20.0 mg/kg), the inhibition in vivo at 20 mg/kg was 13%.

Take `Fc1ccc(-c2n[nH]c([C@@H]3CCCN3)c2-c2ccncc2)cc1` [Example C-123, (S)-5-(2-PYROLIDINYL)-74-(4-PYRIDYL)-3-(4-FLUOROPHENYL)PYRAZOLE]: the IC50 is > 25000 nM in the test on human TNF (setting [2]) and 670 nM at human p38 kinase alpha.

With `C#CCN1CCC(c2[nH]nc(-c3ccc(Cl)cc3)c2-c2ccncc2)CC1` [Example C-81], the inhibition at 5 µM in the test with human TNF (setting [5]) was 40%. Also, the IC50 at human p38 kinase alpha was 37 nM.

For the molecule `Fc1ccc(-c2n[nH]c(N3CCC4(CC3)OCCO4)c2-c2ccncc2)cc1` [Example A-380, 8-[5-(4-fluorophenyl)-4-(4-pyridinyl)-1H-pyrazol-3-yl]-1,4-dioxa-8-azaspiro[4.5]decane], the IC50 in test [1] (Table 9, 10% DMSO) amounted to 850 nM. In addition, the inhibition in vivo at 3 mg/kg in the test on TNF-α (Table 9, dose 3 mg/kg) was 33%. In the test with TNF-α, this molecule registered an inhibition in vivo at 10 mg/kg of 62%. The same molecule returned an inhibition in vivo at 30 mg/kg in the test on TNF-α (Table 9, dose 30 mg/kg) of 85%.

Regarding `C=CCN1CCC(c2[nH]nc(-c3ccc(Cl)cc3)c2-c2ccncc2)CC1` [Example C-80], the inhibition at 5 µM with human TNF (setting [5]) worked out at 51%. Further, the IC50 at human p38 kinase alpha came out at 8 nM.
